According to PubChem BioAssay (NCI):
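Where inhibition never reached the appropriate level, the endpoint shown equals the highest concentration tested. Otherwise, values were interpolated linearly from a five-concentration, 48-hour dose response in 96-well plates. GI50 marks 50% less growth. Definition used: TGI = concentration required for complete inhibition of growth.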

How the values were obtained:
Experiment in all cases: inhibition of tumour cell growth, NCI panel, 48 h
BT-549 breast = system: BT-549 breast
CAKI-1 renal = system: CAKI-1 renal
K-562 leukemia = system: K-562 leukemia
MDA-MB-231 breast = system: MDA-MB-231 breast
MDA-MB-435 = system: MDA-MB-435
NCI-H522 lung = system: NCI-H522 lung
OVCAR-8 ovarian = system: OVCAR-8 ovarian
SK-MEL-2 melanoma = system: SK-MEL-2 melanoma
SK-MEL-28 melanoma = system: SK-MEL-28 melanoma
SNB-19 CNS = system: SNB-19 CNS

SMILES	TGI (BT-549 breast) [µM]	TGI (CAKI-1 renal) [µM]	TGI (K-562 leukemia) [µM]	TGI (MDA-MB-231 breast) [µM]	TGI (MDA-MB-435) [µM]	TGI (NCI-H522 lung) [µM]	TGI (OVCAR-8 ovarian) [µM]	TGI (SK-MEL-2 melanoma) [µM]	TGI (SK-MEL-28 melanoma) [µM]	TGI (SNB-19 CNS) [µM]	GI50 (BT-549 breast) [µM]	GI50 (CAKI-1 renal) [µM]	GI50 (K-562 leukemia) [µM]	GI50 (MDA-MB-231 breast) [µM]	GI50 (MDA-MB-435) [µM]	GI50 (NCI-H522 lung) [µM]	GI50 (OVCAR-8 ovarian) [µM]	GI50 (SK-MEL-2 melanoma) [µM]	GI50 (SK-MEL-28 melanoma) [µM]	GI50 (SNB-19 CNS) [µM]
c1ccc([P+](c2ccccc2)(c2ccccc2)c2ccc([P+](c3ccccc3)(c3ccccc3)c3ccccc3)cc2)cc1	> 100	> 100	> 100	> 100	> 100	> 100	> 100	> 100	> 100	> 100										
O=S(=O)(O)C1CCC(O)C2[N-]CCCC21.O=S(=O)(O)C1CCC(O)C2[N-]CCCC21.[Zn+2] (stereo not given)	> 100	> 100	> 100	> 100	> 100	> 100	> 100	> 100	> 100	> 100										
COC1=CC(=O)C2=C(C1=O)[C@H]1CC[C@]3(C)[C@@H](OC(C)=O)CC[C@H]3[C@@H]1CC2	> 100	> 100	> 100	35.3	38.2	> 100	53.9	> 100	> 100	> 100										
CC(C)(C)OC(=O)N1CCc2c(n(C/C=C/c3ccccc3)[nH]c2=O)C1	> 100	> 100	> 100	> 100	> 100	> 100	> 100	> 100	> 100	> 100										
CC/C(Cl)=N\OC(=O)Nc1ccc(F)cc1F	6.93	3.09	2.34	36.7	34.2	3.65	37.3	33.1	35.9	> 56.6										
O=C1CSc2nnc(CCCCCCCCc3nnc4n3NC(=O)CS4)n2N1	> 100	> 100	> 100	> 100	> 100	75.2	> 100	> 100	> 100	> 100										
CCN(CC)CCN(C)CCc1ccc(Br)cc1	> 100	> 100	> 100	> 100	> 100	> 100	> 100	> 100	> 100	> 100										
CC1(C)CCC2(C(=O)OC3OC(CO)C(O)C(O)C3O)CCC3(CO)C(=CCC4C5(C)CC(O)C(O)C(C)(C(=O)OC6OC(CO)C(O)C(O)C6O)C5CCC43C)C2C1 (stereo not given)	> 100	> 100	> 100	> 100	> 100	> 100	> 100	> 100	> 100	> 100										
CCOC(=O)/C(C#N)=C/N(CC)/N=C/c1ccccc1	> 100	> 100	> 100	> 100	> 100	> 100	> 100	> 100	> 100	> 100										
Oc1[nH]c2ccccc2c1/C=c1/cc2c(c(-c3ccc(C(F)(F)F)cc3)n1)=Nc1ccccc1-2	15.7	27.5	14.9	13.9	10	14.3	28.1	28.7	18.8	> 100	4.17	3.96	2.57	1.89	0.403	1.67	4.99	8.66	1.84	6.81
Cc1cc(S(=O)(=O)O)c(NC(=O)c2oc3cc(O)ccc3c(=O)c2C)cc1Cl	> 100	> 100	> 100	> 100	> 100	> 100	> 100	> 100	> 100	> 100										
Cn1c(=O)sc2cc(C(=S)N3CCOCC3)ccc21	> 100	> 100	> 100	> 100	> 100	> 100	> 100	> 100	> 100	> 100										
CC(C)=CCC[C@@H](C)c1c2[nH]c3ccccc3sc-2c(C)c(=O)c1=O	> 75	35.2	> 75	> 75	> 75	8.6	13.8	30.7	> 75	> 75										
Cc1c2cccc-2ccc2c1[nH]c1ccccc12	9.56	19.3	11	3.48	4.68	3.9	7.07	3.39	3.67	10.3										
O=c1oc2ccc(Cl)cc2cc1-c1cn2ccsc2n1	70.3	> 100	> 100	> 100	> 100	47.9	96.8	> 100	> 100	> 100										
CC(C)(C)c1ccc(-c2nnc(-c3cc(C#N)cc(-c4nnc(-c5ccc(C(C)(C)C)cc5)o4)c3)o2)cc1	> 100	> 100	> 100	> 100	> 100	> 100	> 100	> 100	> 100	> 100										
